According to US5545640A, “Protease inhibiting succinic acid derivatives” (Bio-Mega/Boehringer Ingeleheim Research Inc., priority 1995, dated 1996):
Read-outs that look alike come from different tables or passages of the source.

Columns and labels:
[1] = system: HIV (H9/HTLV-IIIB stock) in C8166 cells; assay: Cell culture assay: inhibition of syncytia formation in HIV-infected C8166 cells (antiviral, anti-HIV effect); assay type: cell-based, HIV (HTLV-IIIB); human T4 cell line; conditions: Human immunodeficiency virus 1; C8166 cells; H9/HTLV-IIIB, 50 times TCID50; 72 h, 37°; read-out: EC50 (concentration causing 50% inhibition of syncytia formation)
From the text: Typical of such procedures are those described by S. Harada and N. Yamamoto, Jpn. J. Cancer Res. (Gann), 76, 432 (1985), and S. Harada et al., Science, 229, 563 (1985). An assay based on the latter procedures is described in the examples hereinafter.
In addition, Tables 1 to 8 list the results for exemplified compounds of formula 1 when assayed for antiviral (anti-HIV) effects according to the following protocol which is based on a cell culture assay previously described by Harada et al., supra. Transformed cells are used because of the rapidity with which HIV will replicate in the cells.
1. The test compound is dissolved in dimethylsulfoxide to a concentration of 5 mg/mL. The resultant solution .can be stored at 4° until use.
2. The resultant solution is diluted in RPMI 1640 (Gibco Laboratories, St. Lawrence, Mass., USA) to four times (4×) the final concentration which is to be tested. Once diluted in RPMI 1640, the solution is used in the cell culture assay within 4 h.
3. The latter solution (50 μL) is added to triplicate wells of a 96 well flat bottomed microtiter plate. RPMI (50 μL) also is added to control wells.
4. C8166 cells (5×10^4) in 50 μL of HEPES-buffered RPMI 1640 (pH=7.2), 10% heat inactivated fetal calf serum (FCS), […] gentamicin (complete media) are added to all wells.
5. Fifty times TCID50 of H9/HTLV-IIIB stock (stored in liquid nitrogen as cell culture supernatant in 50% FCS) in 100 μL of complete media is added to all wells. The infectious titer of the virus stocks is as previously determined by end point dilution on C8166 cells. The titer of stocks are stable for 6-12 months when stored at -193°.
6. Microtiter plates are then placed on level shelves of a 37°, 5% CO2 humidified incubator for 72 h.
7. Plates are then removed and centers of syncytia are counted in each well by low power phase contrast light microscopy. […] Control wells should have between 25 and 75 centers of syncytia per well.
8. Percent inhibition of syncytia formation is calculated by the formula: [formula]
The concentration of the test compound which causes a 50% inhibition of syncytia formation, i.e. the EC50, is determined by using the technique of serial dilution of the working solution at step 3 and graphically plotting the observed percent inhibition of syncytia formation against the various concentrations of the test compound.
In the following tables, assay results are listed for the exemplified compounds from the aforementioned recombinant HIV protease HPLC assay under the heading IC50 (nM) and from the cell culture assay under the heading EC50 (nM). Note that for some of the compounds listed in tables, the EC50 's have not been determined (ND).

HIV protease = molecular target: T1, HIV protease (Human immunodeficiency virus type 1 group M subtype B, UniProt P04585); assay: biochemical; conditions: read-out: IC50 (concentration causing 50% inhibition of HIV protease)
T1 construct: an HIV-encoded enzyme known as HIV protease
From the text: The procedure is based on the capacity of the test compound to inhibit enzymatic cleavage by HIV protease of a decapeptide (the substrate) having an amino acid sequence which includes a known HIV protease cleavage site of a HIV polyprotein; see H. G. Krausslich et al., Proc. Natl. Acad. Sci. USA, 86, 807 (1989).
Anderson, S. Rakhit and C. Yoakim in the European patent application 443 560, published Aug. 28, 1991.

[2] = recombinant HIV protease, decapeptide substrate, HPLC assay

`Cc1ccc(C)c(C(=O)N[C@@H](Cc2ccccc2)[C@H](O)CNC(=O)[C@H](CC(=O)Nc2c(C)cccc2C)C(C)(C)C)c1` [Entry 74] gave an EC50 [1] of 370 nM and an IC50 (HIV protease; [2]) of 2 nM.

Work on `Cc1cccc(C)c1NC(=O)C[C@@H](C(=O)NC[C@@H](O)[C@H](Cc1ccccc1)NC(=O)[C@@H](NC(=O)c1ccc2ccccc2n1)[C@@H](C)O)C(C)(C)C` [Entry 46] yielded an EC50 [1] of 30 nM and an IC50 (HIV protease; [2]) of 2 nM.

`CCC(CC)NC(=O)C[C@@H](C(=O)NC[C@@H](O)[C@H](Cc1ccccc1)NC(=O)[C@@H](NC(=O)c1cnc2ccccc2n1)[C@@H](C)O)C(C)(C)C` [Entry 26] showed an EC50 [1] of 65 nM and an IC50 (HIV protease) of 4 nM.

With `CCC(CC)NC(=O)C[C@@H](C(=O)NC[C@@H](O)[C@H](Cc1ccccc1)NC(=O)[C@H](C(C)C)N(C)C(=O)OCc1ccccc1)C(C)(C)C` [Entry 13] the EC50 [1] was 1900 nM and the IC50 (HIV protease; [2]) was 12 nM.

`CCC(CC)NC(=O)C[C@@H](C(=O)NC[C@@H](O)[C@H](Cc1ccccc1)NC(=O)c1ccc(Cl)cc1Cl)C(C)(C)C` [Entry 66] gave an EC50 [1] of 680 nM and an IC50 (HIV protease; [2]) of 4.7 nM.

`CCC(CC)NC(=O)C[C@@H](C(=O)NC[C@@H](O)[C@H](Cc1ccccc1)NC(=O)[C@@H](NC(=O)OCc1ccccc1)C(C)(C)C)C(C)(C)C` [Entry 34] showed an EC50 [1] of 65 nM and an IC50 (HIV protease; [2]) of 3 nM.
